Results: patent US9045491B2, “Thienyl [3,2-D] pyrimidin-4-one compounds, preparation method, pharmaceutical compositions and use thereof” (SHANGHAI INSTITUTE OF MATERIA MEDICA, CHINESE ACADEMY OF …, priority 2011, dated 2015)

Experiments:
Assay type in all cases: biochemical
[1] = molecular target: T1, human DPP IV (Homo sapiens, UniProt P27487); test: DPP IV activity screening (Ala-Pro-AMC fluorescence)
T1 construct: extracellular fragment of protease DPP IV (aa29-766); made in house; host or cells: baculovirus expression system Bac-to-Bac
T1 sequence (P27487 29-766): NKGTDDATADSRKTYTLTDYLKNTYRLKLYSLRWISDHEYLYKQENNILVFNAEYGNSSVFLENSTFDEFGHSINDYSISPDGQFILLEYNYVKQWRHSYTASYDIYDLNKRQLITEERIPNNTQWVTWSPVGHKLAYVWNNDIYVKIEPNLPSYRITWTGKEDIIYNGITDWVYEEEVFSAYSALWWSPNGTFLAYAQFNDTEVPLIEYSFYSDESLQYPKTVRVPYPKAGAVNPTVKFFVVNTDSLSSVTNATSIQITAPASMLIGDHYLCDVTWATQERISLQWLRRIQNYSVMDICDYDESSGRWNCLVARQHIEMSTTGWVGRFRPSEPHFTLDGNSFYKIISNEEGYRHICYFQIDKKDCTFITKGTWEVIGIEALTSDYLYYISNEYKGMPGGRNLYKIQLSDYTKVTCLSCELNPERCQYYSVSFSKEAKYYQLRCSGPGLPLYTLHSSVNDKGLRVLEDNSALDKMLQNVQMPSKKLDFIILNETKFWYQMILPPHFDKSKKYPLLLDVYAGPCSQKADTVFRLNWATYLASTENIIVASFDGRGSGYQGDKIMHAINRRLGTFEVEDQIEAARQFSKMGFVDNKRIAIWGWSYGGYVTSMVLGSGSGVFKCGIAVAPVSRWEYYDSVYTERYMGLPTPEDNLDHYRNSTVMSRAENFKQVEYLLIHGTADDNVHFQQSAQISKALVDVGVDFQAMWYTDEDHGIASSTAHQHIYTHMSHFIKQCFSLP
Protocol: (§1) Screening method: dipeptidyl peptidase IV (DPP IV) activity screening, dipeptidyl peptidase 7 (DPP 7), dipeptidyl peptidase 8 (DPP 8) activity screening, and dipeptidyl peptidase 9 (DPP 9) activity screening.
Instruments: Microplate Reader (PerkinElmer, USA).
The linear change of fluorescence value at 460 nm in unit time was dynamically measured and DPP IV activity was obtained by calculation.
(§2) Sample treatment: the sample was dissolved in DMSO and stored in low temperature. The concentration of DMSO in the final system was controlled so that the detected activity was not affected.
(§3) The activity of sample was tested under the selected single concentration from preliminary screening, for example, 20 μg/mL. […] The software for calculation was Graphpad Prism 4 and the model used for fitting was sigmoidal dose-response (variable slope). For most inhibitor screening models, the bottom and top of the fitting curve were set to 0 and 100.

[2] = molecular target: dipeptidyl peptidase 7 (DPP 7) (Homo sapiens, UniProt Q9UHL4); test: DPP 7 activity screening; conditions: N.I. = No Inhibition
Protocol: as §1, §2, §3

[3] = molecular target: T2, human DPP 8 (Homo sapiens, UniProt Q6V1X1); test: DPP 8 activity screening (Ala-Pro-AMC fluorescence); conditions: N.I. = No Inhibition
T2 construct: made in house; host or cells: insect cells, baculovirus Bac-to-Bac
T2 sequence (Q6V1X1 whole entry): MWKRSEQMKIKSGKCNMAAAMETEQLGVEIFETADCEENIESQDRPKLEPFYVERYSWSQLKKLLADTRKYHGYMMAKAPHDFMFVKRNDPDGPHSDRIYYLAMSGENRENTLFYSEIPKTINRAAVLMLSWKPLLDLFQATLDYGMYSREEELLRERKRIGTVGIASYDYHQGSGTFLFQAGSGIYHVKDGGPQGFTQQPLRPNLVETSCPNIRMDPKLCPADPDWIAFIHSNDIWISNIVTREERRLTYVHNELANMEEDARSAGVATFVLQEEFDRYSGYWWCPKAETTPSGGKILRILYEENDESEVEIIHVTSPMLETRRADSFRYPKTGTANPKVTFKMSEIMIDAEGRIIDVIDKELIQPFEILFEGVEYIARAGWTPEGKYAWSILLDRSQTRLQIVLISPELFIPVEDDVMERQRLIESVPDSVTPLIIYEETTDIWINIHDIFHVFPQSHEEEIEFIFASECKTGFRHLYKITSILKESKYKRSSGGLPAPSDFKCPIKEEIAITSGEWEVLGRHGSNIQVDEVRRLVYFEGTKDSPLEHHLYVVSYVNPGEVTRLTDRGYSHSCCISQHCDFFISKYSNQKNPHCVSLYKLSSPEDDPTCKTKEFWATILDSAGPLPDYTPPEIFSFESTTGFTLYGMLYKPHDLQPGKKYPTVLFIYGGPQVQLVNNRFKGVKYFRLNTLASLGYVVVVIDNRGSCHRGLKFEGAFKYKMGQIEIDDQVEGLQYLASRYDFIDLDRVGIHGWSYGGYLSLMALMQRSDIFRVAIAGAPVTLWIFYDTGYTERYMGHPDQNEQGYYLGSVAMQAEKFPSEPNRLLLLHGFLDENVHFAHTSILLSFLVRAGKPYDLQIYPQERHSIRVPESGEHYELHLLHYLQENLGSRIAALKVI
Excerpt: as §1
(§4) Materials: human DPP IV, obtained extracellular fragment of protease DPP IV (aa29-766), was expressed and purified by our laboratory using baculovirus expression system Bac-to-Bac (purchased from GIBCO company) in accordance with the conventional experimental technology; human DPP 8 was obtained in insect cells by our laboratory using baculovirus expression system Bac-to-Bac (purchased from GIBCO company) in accordance with the conventional experimental technology; Human DPP 9 was obtained in insect cells by our laboratory using baculovirus expression system Bac-to-Bac (purchased from GIBCO company) in accordance with the conventional experimental technology; and the substrate Ala-Pro-AMC was synthesized by GL Biochem (Shanghai) Ltd.
(§5) Principle of Activity test: DPP IV, DPP 8 and DPP 9 can specifically hydrolyze the substrate Ala-Pro-AMC to form product AMC, and AMC is excited by 355 nm of UV light to generate 460 nm of emission light. The linear change of fluorescence value at 460 nm in unit time was dynamically measured and DPP IV activity was obtained by calculation.
as §2, §3

[4] = molecular target: T3, Human DPP 9 (Homo sapiens, UniProt Q86TI2); test: DPP 9 activity screening (Ala-Pro-AMC fluorescence); conditions: N.I. = No Inhibition
T3 construct: made in house; host or cells: insect cells, baculovirus Bac-to-Bac
T3 sequence (Q86TI2 whole entry): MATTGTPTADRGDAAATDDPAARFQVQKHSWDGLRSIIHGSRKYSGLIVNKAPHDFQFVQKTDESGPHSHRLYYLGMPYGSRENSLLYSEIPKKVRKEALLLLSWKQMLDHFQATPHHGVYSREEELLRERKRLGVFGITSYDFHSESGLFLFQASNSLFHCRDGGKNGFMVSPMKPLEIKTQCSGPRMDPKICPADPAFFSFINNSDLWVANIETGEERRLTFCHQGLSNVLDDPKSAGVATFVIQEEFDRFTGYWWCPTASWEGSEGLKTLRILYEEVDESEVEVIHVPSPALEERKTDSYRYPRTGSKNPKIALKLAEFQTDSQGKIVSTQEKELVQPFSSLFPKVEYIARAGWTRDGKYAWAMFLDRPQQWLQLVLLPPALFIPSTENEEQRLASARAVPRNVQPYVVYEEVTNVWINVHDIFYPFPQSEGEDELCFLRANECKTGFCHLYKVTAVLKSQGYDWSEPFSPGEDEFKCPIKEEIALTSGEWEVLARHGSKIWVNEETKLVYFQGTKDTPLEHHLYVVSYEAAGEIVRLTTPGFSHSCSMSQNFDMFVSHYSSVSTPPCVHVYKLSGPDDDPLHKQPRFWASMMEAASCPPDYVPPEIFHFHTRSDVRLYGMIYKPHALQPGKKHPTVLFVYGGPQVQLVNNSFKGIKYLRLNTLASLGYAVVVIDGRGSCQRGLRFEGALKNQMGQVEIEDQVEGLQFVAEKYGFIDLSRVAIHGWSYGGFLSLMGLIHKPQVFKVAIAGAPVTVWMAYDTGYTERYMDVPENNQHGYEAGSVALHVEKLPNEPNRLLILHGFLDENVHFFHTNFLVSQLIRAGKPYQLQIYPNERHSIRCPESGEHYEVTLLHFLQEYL
Excerpt: as §1, §4, §5, §2, §3

Row | Structure (SMILES) | IC50 [1] | DPP 7 IC50 [2] | DPP 8 IC50 [3] | DPP 9 IC50 [4] | IC50 [3] | IC50 [4]
1 | N#Cc1ccccc1Cn1c(N2CCC[C@@H](N)C2)nc2cc(F)sc2c1=O [Compound 1, (R)-2-((2-(3-aminopiperidin-1-yl)-6-fluoro-4-oxothieno[3,2-d]pyrimidin-3(4H)-yl)methyl)benzonitrile] | 34.7 nM |  |  |  |  | 
2 | N#Cc1ccccc1Cn1c(N2CCC[C@@H](N)C2)nc2c(Br)csc2c1=O [Compound 4, (R)-2-((2-(3-aminopiperidin-1-yl)-7-bromo-4-oxothieno[3,2-d]pyrimidin-3(4H)-yl)methyl)benzonitrile] | 8.78 nM |  |  |  |  | 
3 | N#Cc1ccccc1Cn1c(N2CCC[C@@H](N)C2)nc2c(Cl)csc2c1=O [Compound 9, (R)-2-((2-(3-aminopiperidin-1-yl)-7-chloro-4-oxothieno[3,2-d]pyrimidin-3-(4H)-yl)methyl)benzonitrile] | 36.8 nM |  |  |  |  | 
4 | N#Cc1ccccc1Cn1c(N2CCC[C@@H](N)C2)nc2c(Cl)c(Cl)sc2c1=O [Compound 10, (R)-2-((2-(3-aminopiperidin-1-yl)-6,7-dichloro-4-oxothieno[3,2-d]pyrimidin-3(4H)-yl)methyl)benzonitrile] | 90 nM |  |  |  |  | 
5 | CCOC(=O)CCNC(=O)c1csc2c(=O)n(Cc3ccccc3C#N)c(N3CCC[C@@H](N)C3)nc12 [Compound 88, (R)-ethyl 3-(2-(3-aminopiperidin-1-yl)-3-(2-cyanobenzyl)-4-oxo-3,4-dihydrothieno[3,2-d]pyrimidine-7-carboxamido)propanoate] | 14.8 nM | N.I. |  | N.I. | 54900 nM | 
6 | N#Cc1ccccc1Cn1c(N2CCC[C@@H](N)C2)nc2c(C(=O)N[C@H]3CCOC3=O)csc2c1=O [Compound 92, 2-((R)-3-aminopiperidin-1-yl)-3-(2-cyanobenzyl)-4-oxo-N-((S)-2-oxotetrahydrofuran-3-yl)-3,4-dihydrothieno[3,2-d]pyrimidine-7-carboxamide] | 21.7 nM | N.I. |  | N.I. | 76700 nM | 
7 | N#Cc1ccccc1Cn1c(N2CCC[C@@H](N)C2)nc2c(C(=O)NCCCO)csc2c1=O [Compound 93, (R)-2-(3-aminopiperidin-1-yl)-3-(2-cyanobenzyl)-N-(3-hydroxypropyl)-4-oxo-3,4-dihydrothieno[3,2-d]pyrimidine-7-carboxamide] | 14.8 nM | N.I. |  | N.I. | 60700 nM | 
8 | N#Cc1ccccc1Cn1c(N2CCC[C@@H](N)C2)nc2cc(C(Br)Br)sc2c1=O [Compound 98, (R)-2-((2-(3-aminopiperidin-1-yl)-6-(dibromomethyl)-4-oxothieno[3,2-d]-pyrimidin-3(4H)-yl)methyl)benzonitrile] | 9.95 nM | N.I. |  |  |  | 
9 | COC(=O)[C@@H]1CCCN1C(=O)c1cc2nc(N3CCC[C@@H](N)C3)n(Cc3ccccc3C#N)c(=O)c2s1 [Compound 125, (S)-methyl 1-(2-((R)-3-aminopiperidin-1-yl)-3-(2-cyanobenzyl)-4-oxo-3,4-dihydrothieno[3,2-d]pyrimidine-6-carbonyl)pyrrolidine-2-carboxylate] | 33.8 nM | N.I. |  |  | 15500 nM | 172000 nM
10 | CS(=O)(=O)CCNC(=O)c1cc2nc(N3CCC[C@@H](N)C3)n(Cc3ccccc3C#N)c(=O)c2s1 [Compound 126, (R)-2-(3-aminopiperidin-1-yl)-3-(2-cyanobenzyl)-N-(2-(methylsulfonyl)-ethyl)-4-oxo-3,4-dihydrothieno[3,2-d]-pyrimidine-6-carboxamide] | 20.1 nM | N.I. |  | N.I. | 55900 nM | 
11 | N#Cc1ccccc1Cn1c(N2CCC[C@@H](N)C2)nc2cc(C(=O)N[C@H]3CCOC3=O)sc2c1=O [Compound 127, 2-((R)-3-aminopiperidin-1-yl)-3-(2-cyanobenzyl)-4-oxo-N-((S)-2-oxotetrahydrofuran-3-yl)-3,4-dihydrothieno[3,2-d]pyrimidine-6-carboxamide] | 24.6 nM | N.I. |  | N.I. | 52700 nM | 

The remaining lines, values ahead:

Row | IC50 [1] | DPP 7 IC50 [2] | DPP 8 IC50 [3] | DPP 9 IC50 [4] | IC50 [3] | IC50 [4] | Structure (SMILES)
12 | 45.6 nM |  |  |  |  |  | N#Cc1ccccc1Cn1c(N2CCC[C@@H](N)C2)nc2cc(Cl)sc2c1=O [Compound 8, (R)-2-((2-(3-aminopiperidin-1-yl)-6-chloro-4-oxothieno[3,2-d]pyrimidin-3 (4H)-yl)methyl)benzonitrile]
13 | 35.5 nM |  |  |  |  |  | N#Cc1ccccc1Cn1c(N2CCC[C@@H](N)C2)nc2c3c(sc2c1=O)CCCC3 [Compound 27, (R)-2-((2-(3-aminopiperidin-1-yl)-4-oxo-6,7,8,9-tetrahydrobenzo[4,5]thieno-[3,2-d]pyrimidin-3(4H)-yl)methyl)-benzonitrile]
14 | 26.5 nM | N.I. | N.I. | N.I. |  |  | N#Cc1ccccc1Cn1c(N2CCC[C@@H](N)C2)nc2c(CO[C@H]3CCOC3)csc2c1=O [Compound 87, 2-((2-((R)-3-aminopiperidin-1-yl)-4-oxo-7-((((S)-tetrahydrofuran-3-yl)oxy)methyl)thieno[3,2-d]pyrimidin-3(4H)-yl)methyl)benzonitrile]
15 | 14.3 nM | N.I. |  | N.I. | 39400 nM |  | CCOC(=O)CCCNC(=O)c1csc2c(=O)n(Cc3ccccc3C#N)c(N3CCC[C@@H](N)C3)nc12 [Compound 89, (R)-ethyl 4-(2-(3-aminopiperidin-1-yl)-3-(2-cyanobenzyl)-4-oxo-3,4-dihydrothieno[3,2-d]pyrimidine-7-carboxamido)butanoate]
16 | 14.3 nM | N.I. |  | N.I. | 102000 nM |  | CS(=O)(=O)CCNC(=O)c1csc2c(=O)n(Cc3ccccc3C#N)c(N3CCC[C@@H](N)C3)nc12 [Compound 90, (R)-2-(3-aminopiperidin-1-yl)-3-(2-cyanobenzyl)-N-(2-(methylsulfonyl)-ethyl)-4-oxo-3,4-dihydrothieno[3,2-d]-pyrimidine-7-carboxamide]
17 | 36.4 nM | N.I. |  | N.I. | 88000 nM |  | COC(=O)[C@@H]1CCCN1C(=O)c1csc2c(=O)n(Cc3ccccc3C#N)c(N3CCC[C@@H](N)C3)nc12 [Compound 91, (S)-methyl 1-(2-((R)-3-aminopiperidin-1-yl)-3-(2-cyanobenzyl)-4-oxo-3,4-dihydrothieno[3,2-d]pyrimidine-7-carbonyl)pyrrolidine-2-carboxylate]
18 | 19.8 nM | N.I. |  | N.I. | 223000 nM |  | N#Cc1ccccc1Cn1c(N2CCC[C@@H](N)C2)nc2cc(C(=O)NCCO)sc2c1=O [Compound 123, (R)-2-(3-aminopiperidin-1-yl)-3-(2-cyanobcnzyl)-N-(2-hydroxyethyl)-4-oxo-3,4-dihydrothieno[3,2-d]-pyrimidine-6-carboxamide]
19 | 26.9 nM | N.I. |  | N.I. | 43900 nM |  | N#Cc1ccccc1Cn1c(N2CCC[C@@H](N)C2)nc2cc(C(=O)N3CCC(CO)CC3)sc2c1=O [Compound 124, (R)-2-((2-(3-aminopiperidin-1-yl)-6-(4-(hydroxymethyl)piperidine-1-carbonyl)-4-oxothieno[3,2-d]pyrimidin-3(4H)-yl)methyl)benzonitrile]
